One assay concerns Sm.TRPM[D1677E]PZQ. Description: FLIPR Ca2+ reporter assay, Sm.TRPM[D1677E]PZQ mutant. It counts as cell-based, Schistosoma mansoni. Background: In a reporter assay the amount or activity of a reporter protein is the signal.
The next assay deals with Sm.TRPM[N1388H]PZQ. Description: FLIPR Ca2+ reporter assay, Sm.TRPM[N1388H]PZQ mutant. The format is cell-based, Schistosoma mansoni.
The test system of another assay is Sm.TRPM[T1518S]PZQ. Description: FLIPR Ca2+ reporter assay, Sm.TRPM[T1518S]PZQ mutant. It counts as cell-based, Schistosoma mansoni.
For another assay, the target named is Ml.TRPM[E1495D]PZQ (Macrostomum lignano, UniProt A0A267GS13). It counts as cell-based.
Chain of Ml.TRPM[E1495D]PZQ (A0A267GS13 1-1954, stated change not applied): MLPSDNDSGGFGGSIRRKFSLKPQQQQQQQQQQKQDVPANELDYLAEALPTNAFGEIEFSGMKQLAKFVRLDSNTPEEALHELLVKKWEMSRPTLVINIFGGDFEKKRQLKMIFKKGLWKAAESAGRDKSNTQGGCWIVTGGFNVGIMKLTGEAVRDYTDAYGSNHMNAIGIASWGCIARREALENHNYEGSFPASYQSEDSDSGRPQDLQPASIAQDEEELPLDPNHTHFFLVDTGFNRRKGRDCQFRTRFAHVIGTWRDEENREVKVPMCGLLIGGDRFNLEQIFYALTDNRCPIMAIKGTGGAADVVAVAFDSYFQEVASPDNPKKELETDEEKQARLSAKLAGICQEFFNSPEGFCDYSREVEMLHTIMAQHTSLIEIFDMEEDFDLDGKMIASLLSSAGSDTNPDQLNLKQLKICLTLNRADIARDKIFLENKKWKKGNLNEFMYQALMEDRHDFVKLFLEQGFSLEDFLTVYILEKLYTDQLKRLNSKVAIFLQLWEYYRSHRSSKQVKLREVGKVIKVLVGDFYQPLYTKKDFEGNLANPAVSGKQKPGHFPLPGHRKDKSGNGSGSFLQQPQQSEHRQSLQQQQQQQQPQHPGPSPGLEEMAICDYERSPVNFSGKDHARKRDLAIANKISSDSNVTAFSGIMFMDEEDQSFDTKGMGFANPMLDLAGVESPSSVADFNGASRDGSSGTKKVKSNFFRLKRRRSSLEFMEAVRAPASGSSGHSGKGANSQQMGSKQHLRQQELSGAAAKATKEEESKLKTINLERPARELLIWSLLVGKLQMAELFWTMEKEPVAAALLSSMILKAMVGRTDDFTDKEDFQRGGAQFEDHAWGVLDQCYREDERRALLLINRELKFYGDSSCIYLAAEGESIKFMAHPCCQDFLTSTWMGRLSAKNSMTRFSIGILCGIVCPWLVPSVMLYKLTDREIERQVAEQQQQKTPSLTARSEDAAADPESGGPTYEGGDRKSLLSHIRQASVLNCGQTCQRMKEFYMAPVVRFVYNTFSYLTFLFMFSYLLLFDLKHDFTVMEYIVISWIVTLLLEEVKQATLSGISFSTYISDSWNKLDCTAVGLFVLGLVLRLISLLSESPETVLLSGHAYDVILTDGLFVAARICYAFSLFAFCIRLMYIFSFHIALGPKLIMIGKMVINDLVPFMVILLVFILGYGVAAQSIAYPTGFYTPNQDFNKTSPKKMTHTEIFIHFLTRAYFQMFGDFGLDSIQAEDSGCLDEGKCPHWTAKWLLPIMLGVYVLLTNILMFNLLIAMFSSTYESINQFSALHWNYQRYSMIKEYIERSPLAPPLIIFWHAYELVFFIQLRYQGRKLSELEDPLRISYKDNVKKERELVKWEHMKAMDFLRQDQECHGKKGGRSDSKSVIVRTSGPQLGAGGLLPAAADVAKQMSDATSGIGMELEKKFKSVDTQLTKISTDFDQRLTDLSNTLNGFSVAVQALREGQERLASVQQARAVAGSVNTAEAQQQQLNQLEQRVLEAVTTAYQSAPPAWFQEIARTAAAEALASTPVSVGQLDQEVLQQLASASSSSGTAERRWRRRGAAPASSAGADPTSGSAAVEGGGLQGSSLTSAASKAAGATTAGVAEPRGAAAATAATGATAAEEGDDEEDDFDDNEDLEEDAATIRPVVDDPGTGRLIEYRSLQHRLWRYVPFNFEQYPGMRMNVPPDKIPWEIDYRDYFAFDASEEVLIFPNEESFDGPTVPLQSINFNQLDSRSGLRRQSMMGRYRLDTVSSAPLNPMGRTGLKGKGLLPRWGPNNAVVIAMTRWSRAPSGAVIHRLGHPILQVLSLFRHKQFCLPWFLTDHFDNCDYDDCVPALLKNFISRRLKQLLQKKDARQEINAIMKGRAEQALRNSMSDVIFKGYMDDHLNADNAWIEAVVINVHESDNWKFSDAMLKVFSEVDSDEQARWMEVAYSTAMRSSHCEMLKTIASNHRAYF
A further assay deals with Sm.TRPM[D1677Y]PZQ. Description: FLIPR Ca2+ reporter assay, Sm.TRPM[D1677Y]PZQ mutant. It counts as cell-based, Schistosoma mansoni.
Another assay concerns Sm.TRPM[W1667A]PZQ. Description: FLIPR Ca2+ reporter assay, Sm.TRPM[W1667A]PZQ mutant. The format is cell-based, Schistosoma mansoni.
A further assay relates to cyclophyllidean cestodes. Conditions: cited from earlier work.
Assay [1] concerns larval and adult diphyllobothriids. Particulars: cited from earlier work.
A further assay deals with D. japonica. Particulars: read-out: EC50 for evoking bipolarity; cited from earlier work.
The test system of another assay is Fh.TRPMPZQ. Particulars: Fh.TRPMPZQ with S1 threonine residue; cited from earlier work.

Read-outs that look alike come from different tables or passages of the source.

In general, EC50 refers to the concentration at which the effect is half-maximal. Consider `O=C(C1CCCCC1)N1CC(=O)N2CCc3ccccc3C2C1` (racemic) [(±)-PZQ, praziquantel], for which the “responsiveness of mutant channel” value in the assay with Sm.TRPM[D1677E]PZQ is on record as “no responsiveness”; in the assay on Sm.TRPM[D1677E]PZQ (listed as PZQ), “ablated sensitivity”. The “sensitivity compared with the wild-type channel” value in the assay on Sm.TRPM[N1388H]PZQ and with Sm.TRPM[T1518S]PZQ was “equivalent sensitivity” in each case. In addition, the “increase of sensitivity versus wild-type Ml.TRPMPZQ” value on Ml.TRPM[E1495D]PZQ was ~ 2.5 fold. For the same molecule, the half-maximal effective concentration (EC50) at Ml.TRPM[E1495D]PZQ (Ml.TRPM[E1495D]PZQ, Ca2+) is 21.1 ± 3.1 µM; in the assay on D. japonica, 35 ± 7 µM. Further, the “sensitivity of mutant channel compared with wild type” value is recorded as “enhanced” in the assay with Sm.TRPM[D1677Y]PZQ and “increased sensitivity” with Sm.TRPM[W1667A]PZQ. Moreover, in the assay with cyclophyllidean cestodes, the “lowest concentration with deleterious effects in vitro” value is 320 pM. The “concentration required to show lethality” value in assay [1] was above 320 µM. The sensitivity of channel entry in the assay with Fh.TRPMPZQ was “insensitive”.

The values are drawn from article PMC9910428 (Proceedings of the National Academy of Sciences of the …, 2022).
